Data: paper PMC6947424, “New Targeted Gold Nanorods for the Treatment of Glioblastoma by Photodynamic Therapy” (Journal of Clinical Medicine, 2019)
Values joined by “and” are separate entries in the source; they are usually repeats but may differ in a detail not shown here. Equal entries are not always repeated. Residues, ends and D or L forms follow the SMILES beside them. *: point of attachment. Pyropheophorbide(a) = C=Cc1c(C)c2cc3nc(c4c5[nH]c(cc6nc(cc1[nH]2)C(C)=C6CC)c(C)c5C(=O)C4)[C@@H](CCC(=O)*)[C@@H]3C; Hexanoyl(6-maleimido) = O=C1C=CC(=O)N1CCCCCC(=O)*

Columns and labels:
U87 glioblastoma cells = test: MTT cytotoxicity in the dark, U87 cells; format: cell-based; conditions: 24 h in the dark, n = 3
Procedure: For in vitro experiments, U87 glioblastoma cells (ATCC® HTB-14™) were cultivated in Dulbecco’s modified eagle’s medium (DMEM) supplemented with sodium pyruvate 1.5 mM, MEM AA, MEM NE AA, MEM vitamins, L-Ser 14 μg·mL^−1, L-asp 25 μg·mL^−1, L-Glu 2.5 mM, 100 U·mL^−1 penicillin, 100 μg·mL^−1 streptomycin, and 20% FCS. They were cultured under standard cell culture conditions while incubated in 5% CO2/80% humidified air at 37 °C.
Cell survival of U87 after incubation with the hybrid AuNRs, the PS-peptide conjugate or the free PS in the dark (cytotoxicity) or after light exposure (phototoxicity) was investigated using an MTT assay as previously described. […] However, the phototoxicity induced by those molecules was assessed by exposing the cells to light at a fluence of 10 J·cm^−2 (fluence rate 4.54 mW·cm^−2, duration: 36 min 42 s) using a 652 nm diode laser system (Ceralas, Biolytec, Jena, Germany). […] The cell survival was measured by MTT assay where the cells were incubated for 3 h at 37 °C with 0.4 mg·mL^−1. […] The absorption of formazan was measured at 540 nm with a background subtraction at 630 nm using a Multiskan Ascent plate reader (Thermo Scientific, Vantaa, Finland). […]
All in vitro experiments were realized in triplicate and expressed as a percentage of variation from control cells. […]

[1] = Singlet oxygen production (quantum yield and lifetime); format: physicochemical; conditions: ethanol; for ΦΔ (singlet oxygen quantum yield): excitation 412 nm, detection 1270 nm, Rose Bengal as reference
Procedure: (§1) The setup and the protocol to evaluate the photophysical characterizations including the absorption, fluorescence, and singlet oxygen emission spectra in addition to the fluorescence and singlet oxygen lifetimes have been previously described by our team. The absorption spectra were recorded on a UV-3600 UV–vis double beam spectrophotometer (Shimadzu, Marne La Vallée, France) in the wavelength range of 200-800 nm. The measurements were performed on the molecules dispersed in ethanol in quartz cuvettes with an optical path of 10 mm. The fluorescence spectra were recorded on a Horiba Jobin Yvon Fluorolog-3 (FL3-222) spectrofluorimeter equipped with a 450W xenon lamp, a thermostated cell compartment (25 °C), a R928 (Hamamatsu, Massy, France) UV–vis photomultiplier and a liquid nitrogen cooled InGaAs infrared detector (DSS-16A020L Electro-Optical System Inc., Phoenixville, PA, USA). The excitation spectrometer used is a SPEX double grating monochromator (1200 grooves per mm blazed at 330 nm). The fluorescence was measured using the UV–vis detector through a SPEX double grating monochromator (600 grooves per mm blazed at 500 nm). The singlet oxygen production was measured using the IR detector through a SPEX double grating monochromator (600 grooves per mm blazed at 1 μm).
(§2) Fluorescence quantum yields (Φf) were determined using a tetraphenyl porphyrin (TPP) solution as the fluorescence standard (Φf = 0.11 in toluene, taking into account solvent refractive index and absorption efficiencies. For the direct determination of ^1O2 quantum yield (ΦΔ), excitation was performed with a Xe-arc, the light was separated in a SPEX 1680, 0.22 µm double monochromator. Detection at 1270 nm was carried out through a PTI S/N 1565 monochromator and the emission was monitored by a liquid nitrogen cooled Ge-detector (EO-817L, North Coast Scientific Co, OH, USA). Rose Bengal (RB) was chosen as a reference solution because of its high ^1O2 quantum yield in EtOH (ΦΔ = 0.68). The absorbance value at the excitation wavelengths (412 nm) of both the reference and the sample solutions were set to approximately 0.2 by dilution. The samples were all prepared in ethanol.
The quantum yield of singlet oxygen production is determined by the equation (2):(2) ΦΔ=ΦΔ0×I/I0×[…] where ΦΔ and ΦΔ0, I and I0, DO and DO0 are the luminescence quantum yields of singlet oxygen, the luminescence intensities and the optical densities of the sample and reference, respectively.
(§3) Fluorescence lifetimes were measured by Time-Correlated Single Photon Counting (TCSPC) using for excitation a pulsed laser diode LDH-P-C-405 coupled with a PDL 800-D driver (both from PicoQuant GmbH, Berlin, Germany) emitting at 408 nm (FWHM < 70 ps, 1 MHz) and an SPCM-AQR-15 avalanche photodiode (EG & G, Vaudreuil, Canada) coupled with a 650 nm (±10 nm) interference long-wave pass filter as the detection system. The acquisition system was a PicoHarp 300 module with a PHR-800 four-channel router (both from PicoQuant GmbH, Berlin, Germany). Fluorescence decays were recorded using the single photon counting method (four optical faced quartz cells for pure products in ethanol). Data were collected, and up to 1000 counts were accumulated in the maximum channel and analyzed using Fluofit TCSPC software (PicoQuant GmbH, Berlin, Germany) based on iterative reconvolution using a Levensberg-Marquandt algorithm. Singlet oxygen lifetime measurements have been performed on a TEMPRO-01 spectrophotometer (Horiba Jobin Yvon, Palaiseau, France). The apparatus was composed of a pulsed diode excitation source SpectraLED-415 emitting at 415 nm, a cuvette compartment, a Seya–Namioka type emission monochromator (600–2000 nm), and an H10330-45 near-infrared photomultiplier tube with a thermoelectric cooler (Hamamatsu, Massy, France) as the detection system. The system was monitored by a single photon counting controller FluoroHub-B and the software DataStation and DAS6 (Horiba Jobin Yvon, Palaiseau, France). […]

[2] = Fluorescence emission (quantum yield and lifetime); format: physicochemical; conditions: ethanol; for τf (fluorescence lifetime): TCSPC, single exponential fit; for Φf (fluorescence quantum yield): excitation 412 nm, TPP in toluene as standard, 25 °C
Procedure: as §1, §2
The quantum yield of fluorescence is determined by the equation (1):(1) Φf=Φf0×If/If0×[…]×(n/n0)^2 where Φf and Φf0, If and If0, DO and DO0, n and n0 are the quantum yields, intensities, optical densities and refraction indices of the sample and reference, respectively.
as §3

Structure (SMILES): C=Cc1c(C)c2cc3nc(c4c5[nH]c(cc6nc(cc1[nH]2)C(C)=C6CC)c(C)c5C(=O)C4)[C@@H](CCC(=O)O)[C@@H]3C [Pyro, pyropheophorbide-a, reference compound]
- dark cytotoxicity (metabolic activity of U87 cells) (U87 glioblastoma cells; 10 µM PS): decrease the metabolic activity of U87 cells
- τΔ (singlet oxygen lifetime) [1]: 14 μs
- ΦΔ (singlet oxygen quantum yield) [1]: 0.5 and 0.51
- τf (fluorescence lifetime) [2]: 6.8 ns
- Φf (fluorescence quantum yield) [2]: 0.38

Structure (SMILES): C=Cc1c(C)c2cc3nc(c4c5[nH]c(cc6nc(cc1[nH]2)C(C)=C6CC)c(C)c5C(=O)C4)[C@@H](CCC(=O)NCCCC[C@H](NC(=O)CCCCCN1C(=O)C=CC1=O)C(=O)N[C@@H](CC(=O)O)C(=O)N[C@@H](CCCCN)C(=O)N1CCC[C@H]1C(=O)N1CCC[C@H]1C(=O)N[C@@H](CCCNC(=N)N)C(=O)O)[C@@H]3C [MI-K(Pyro)DKPPR-OH] ({Hexanoyl(6-maleimido)}-K(Pyropheophorbide(a))DKPPR-OH)
- dark cytotoxicity (U87 glioblastoma cells; even at PS concentration of 30 µM): no cytotoxic effect
- τΔ (singlet oxygen lifetime) [1]: 13 μs
- ΦΔ (singlet oxygen quantum yield) [1]: 0.39
- τf (fluorescence lifetime) [2]: 6.5 ns
- Φf (fluorescence quantum yield) [2]: 0.29
